Values of other authors in patent US20220313608A1, “TREATMENT OF BREAST CANCER” (SynCore Biotechnology Co., Ltd., priority 2015, published 2022).

Tested on: metastatic breast cancer patients
Settings: first-line, gemcitabine 1250 mg/m^2 days 1 and 8, paclitaxel 175 mg/m^2 triweekly

frequency of alteration of hepatic function: 2%
Structure (SMILES): CC(=O)O[C@H]1C(=O)[C@@]2(C)[C@H]([C@H](OC(=O)c3ccccc3)[C@]3(O)C[C@H](OC(=O)[C@H](O)[C@@H](NC(=O)c4ccccc4)c4ccccc4)C(C)=C1C3(C)C)[C@]1(OC(C)=O)CO[C@@H]1C[C@@H]2O [paclitaxel]
